Test results reported in patent US5098613A, “Anti-inflammatory agents” (Eli Lilly and Company, priority 1990, dated 1992).

Tests used:
[1] = target: T1, leukotriene B4 specific receptor on the membrane of human neutrophils (Homo sapiens, UniProt Q15722); experiment: Inhibition of Binding of ^3 H-LTB4 to Peripheral Human Neutrophils; conditions: 4° C., 10 minutes; for inhibition at 10 µM: drug concentration 10^-5 M, read-out: LTB4 Binding Inhibition; for inhibition at 1 µM: drug concentration 10^-6 M; for inhibition at 0.1 µM: drug concentration 10^-7 M
T1 construct: incubating neutrophils (1×10^7 cells) with 0.1-0.2 nM ^3 H-LTB4; endogenous in cells; host or cells: human peripheral blood neutrophils (buffy coats of two blood donors)
T1 sequence (Q15722 whole entry): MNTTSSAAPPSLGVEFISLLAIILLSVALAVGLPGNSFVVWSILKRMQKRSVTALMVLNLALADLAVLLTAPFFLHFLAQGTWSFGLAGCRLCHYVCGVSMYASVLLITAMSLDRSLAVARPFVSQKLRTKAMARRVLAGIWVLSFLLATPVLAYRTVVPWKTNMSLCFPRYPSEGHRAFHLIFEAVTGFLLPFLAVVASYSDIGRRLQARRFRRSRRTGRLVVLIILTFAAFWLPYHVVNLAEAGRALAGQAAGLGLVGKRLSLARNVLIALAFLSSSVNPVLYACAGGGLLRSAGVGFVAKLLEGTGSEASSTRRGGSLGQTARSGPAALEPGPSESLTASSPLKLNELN
In short: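 Freshly isolated human donor neutrophils (1×10^7 cells) in HBSS/0.1% ovalbumin pH 7.3 were incubated with 0.1-0.2 nM ^3H-LTB4 and compound at 1×10^-5 or 1×10^-6 M for 10 min at 4 °C. Bound ligand was separated by centrifugation through phthalate oil and counted, then corrected for nonspecific binding and compared with compound-free control.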

[2] = system: inflammation created by injecting carrageenin into the hind paws of rats; experiment: Carrageenin Assay; type: in vivo; conditions: Rattus norvegicus, ip, 50 mg/kg i.p., prior to carrageenin injection, read-out: Percent Inhibition (Antiinflammatory Activity in the Carrageenin Assay)
Description: The compounds were evaluated for antiinflammatory activity in the test method described by C. A. Winter, Proc. Soc. Exp. Biol. Med., 111, 544 (1962). In this test, inflammation is created by injecting carrageenin into the hind paws of rats. Test compounds are administered prior to injection to determine percent inhibition of the subsequent inflammation in comparison with control animals.

[3] = system: IL-1 induced T-cell Proliferation; experiment: Anti IL-1 Activity (Thymocyte Assay): suppression of IL-1 induced T-cell proliferation; type: cell-based, C3H/HeJ male mice; conditions: mouse thymocytes, 48 hours, read-out: Percent T-cell suppression; for inhibition at 1 µg/mL: 1 mcg/ml; for inhibition at 10 µg/mL: 10 mcg/ml
Description: Thymus from 3-4 week old C3H/HeJ male mice and were passed through a #100 mesh screen to make a single cell suspension. The cells were suspended in RPMI-1640 supplemented with 2×10^-5 M 2-mercaptoethanol, 3% fetal calf serum, and 1% Penicillin/Streptomycin. The cell suspension was placed in a tissue culture flask and incubated at 37° C. in 5% carbon dioxide in air for 1-2 hours. The thymocytes were decanted, leaving adherent cells behind, and the liquid was centrifuged at 1400 rpm for 10 minutes. After decanting the supernatant, the cells were resuspended and counted with a hemocytometer. The density was adjusted to […]. Fifty μ1 of the suspension were added to each well of a 96-well microtiter plate, followed by the addition of 25 μl of PHA and 25 μl IL-1 (1:25 dilution of a 10 mcg/ml stock solution) per well.
Each compound to be tested was dissolved in 30% DMSO/70% PBS to make a stock solution of 1 mg/ml. Fifteen μl of each compound were added to 300 μl of media in the serial dilution plate. Twenty-five μl of each drug were added to the test plate in quadruplicate wells across the plate. The plate was incubated at 37° C. in 5% carbon dioxide in air for 48 hours. The wells were pulsed with tritiated thymidine (5 μCi.well) for 4 hours before harvesting on a Skatron cell harvester. The filter discs were placed in mini-vials, scintillation fluid (Tol-Pop) was added, and the vials counted. The percent of counts for each vial compared with control samples wherein no compound was added (vehicles only) was determined for each compound and are reported as Table III below as the percent T-ce1 suppression.

[4] = system: Arachidonic Acid Induced Ear Edema; experiment: Arachidonic Acid-Induced Ear Edema Assay; type: in vivo, Female BALB/C mice; conditions: Mus musculus, 1 h, topical, one hour prior to arachidonic acid, read-out: Percent Inhibition of Ear Swelling; for inhibition in vivo at 0.05 %: 0.05% in ethanol gel; for inhibition in vivo at 1 %: 1% in ethanol gel
Description: Female BALB/C mice (Charles River; 18-20 rams) were divided into groups of five. Arachidonic acid was dissolved in ethanol at a concentration of 200 mg/ml. Each mouse received 2 mg/ear of arachidonic acid on the inner surface of the right ear. This dose of phlogistic was applied by an automatic pipette in 10 mcl volumes. The left ear (control) received ethanol. Drugs were applied topically in an ethanol-based gel to the entire outer surface of both ears one hour prior to arachidonic acid application. Edema was measured by the increase in ear weight. An hour after arachidonic acid solution or vehicle was applied, an ear sample of 7 mm in diameter was obtained from both ears. Ear edema was calculated by subtracting the […], dividing by the weight of the left/Control ear, and averaging the results for each group of mice according to compound and concentration.

[5] = system: shock after E. coli LPS and galactosamine (GALN) challenge; experiment: Mouse Endotoxin Shock Assay; type: in vivo, C57BL/6 male mice; conditions: LPS/GALN s.c. challenge, results 48 hours after challenge, Reed Muench Method
Description: Compounds were given to 18-20 g C57BL/6 male mice using various regimens depending upon mode of administration. Control animals received corresponding vehicles only. The mice were then challenged with 0.2 ml of chromatographically purified 0111:B4 E. coli LPS and galactosamine hydrochloride (GALN) given subcutaneously (back of the neck). GALN was given at an approximate dose of 500 mg/kg whereas the LPS dose ranged between 0.3-1.2 μg/mouse (15-60 μg/k9). Control animals generally die of shock 7-15 hours after administration of LPS/GALN although a small number (0-5%) may die 24-48 hours after such administration. Calculation of the EDso for each compound was performed using the Reed Muench Method for results obtained 48 hours after challenge.

| SMILES | inhibition at 10 µM [1] [%] | inhibition at 1 µM [1] [%] | inhibition in vivo at 50 mg/kg [2] [%] | inhibition at 1 µg/mL [3] [%] | inhibition at 10 µg/mL [3] [%] | inhibition in vivo at 0.05 % [4] [%] | ED50 [5] [mg/kg] | inhibition at 0.1 µM [1] [%] | inhibition in vivo at 0.1 % ([4]; 0.1% in ethanol gel) [%] | inhibition in vivo at 1 % [4] [%] |
| --- | --- | --- | --- | --- | --- | --- | --- | --- | --- | --- |
| CCc1cc(C(C)=O)c(O)cc1OCCCCC#N [Example 19, 5-(4-Acetyl-2-ethyl-5-hydroxyphenoxy)-pentanenitrile] | 90 | 61 | 26 | – | – | – | – | – | – | – |
| CCc1cc(C(C)=O)c(O)cc1OCCCCCCC#N [Example 20, 7-(4-Acetyl-2-ethyl-5-hydroxyphenoxy)-heptanenitrile] | 102 | 72 | 19 | 39 | 99 | – | – | – | – | – |
| C=CCc1cc(C(C)=O)c(O)cc1OCc1ccccc1 [Example 47, 2-Hydroxy-4-benzyloxy-5-allylacetophenone] | 32 | 5 | 53 to 65 | – | – | 52 | 24 | – | – | – |
| C=CCc1cc(C(C)=O)c(O)cc1OCc1ccc(C#N)cc1 [Example 48, 4[(4-Acetyl-5-hydroxy-2-allylphenoxy)-methyl]benzonitrile] | 22 | 28 | 30 | – | – | 13.6 | 18.6 | – | – | – |
| C=CCc1cc(C(C)=O)c(O)cc1OCc1ccccc1C#N [Example 49, 2-[(4-Acetyl-5-hydroxy-2-allylphenoxy)-methyl]benzonitrile] | 47 | 15 | 43 | – | – | 31 | > 50 | – | – | – |
| C=CCc1cc(C(C)=O)c(O)cc1OCc1cccc(C#N)c1 [Example 50] | 67 | 66 | 50 to 82 | – | – | 29 to 47 | 9.5 | 25 | – | – |
| C=CCc1cc(C(C)=O)c(O)cc1OCc1cccc(C)c1 [Example 51, 2-Hydroxy-4-(3-methylbenzyloxy)-5-allyl-acetophenone] | 24 | 32 | 79 | – | – | 43 | 27 | – | 31 | – |
| CCCc1cc(C(C)=O)c(O)cc1OCCCc1ccccc1 [Example 53, 2-Hydroxy-4-(3-phenylpropoxy)-5-propyl-acetophenone] | 5 | 13 | 50 to 60 | – | – | 24 | – | – | – | – |
| CCc1cc(C(C)=O)c(O)cc1OCc1cccc(F)c1 [Example 54, 5-Ethyl-4-(3-fluorobenzyloxy)-2-hydroxy-acetophenone] | 42 | 32 | – | – | – | – | 21 | – | – | – |
| CCc1cc(C(C)=O)c(O)cc1OCc1cccc(C#N)c1 [Example 55] | 60 | 71 | 70 | – | – | 43 to 59 | 3.1 | 25 | – | 57 |
| CCc1cc(C(C)=O)c(O)cc1OCCCCCC(C)(C)C#N [Example 68, 4-(6-Cyano-6-methylheptyloxy)-5-ethyl-2-hydroxyacetophenone] | 84 | 53 | 33 | 13 | 99 | – | > 50 | – | – | 46 |
| CCc1cc(C(C)=O)c(O)cc1OCCCCCC[S+](C)[O-] (stereo not shown) [Example 82, 2-Hydroxy-4-[6-(methylsulfinyl)hexyl-oxy]-5-ethylacetophenone] | 91 | 50 | 31 | 21 | 88 | – | > 50 | – | – | 9 |
| CCc1cc(C(C)=O)c(O)cc1OCCCCCC(C)(C)C(=O)O [Example 87, 7-(4-Acetyl-2-ethyl-5-hydroxyphenoxy)-2,2-dimethylheptanoic acid] | 104 | 73 | 15 | – | – | – | – | 20 | – | 3 |
| CCc1cc(C(C)=O)c(O)cc1OCc1cccc(C(=O)OC)c1 [Example 93] | 64 | 22 | – | – | – | – | 25 | – | – | – |
| C=CCc1cc(C(C)=O)c(O)cc1OCCCCCC(=O)NO [Example 100, 6-(4-Acetyl-5-hydroxy-2-allylphenoxy)-droxyhexanamide] | 84 | 28 | 38 | – | – | – | – | – | – | 18 |
| CCc1cc(C(C)=O)c(O)cc1OCCCCCC(C)(C)c1nn[nH]n1 [Example 108, 5-Ethyl-2-hydroxy-4-[6-methyl-6-(1H-tetrazol5-yl)heptyloxy]acetophenone] | 105 | 96 | 61 | – | – | – | > 50 | 60 | – | 60 |
| CCc1cc(C(C)=O)c(O)cc1OCCCCc1nn[nH]n1 [Example 110, 5-Ethyl-2-hydroxy-4-[4-(lH-tetrazol-5-y)butoxy]acetophenone] | 49 | 19 | 64 | – | – | – | – | – | – | 58 |
| CCc1cc(C(C)=O)c(O)cc1OCCCCc1nnn(C)n1 [Example 123, 2-Hydroxy-4-[4-(2-methyl-2H-tetrazol-5-yl)butoxy]-5-ethylacetophenone] | 98 | 60 | 55 | 36 | 90 | – | – | – | – | 58 |
| CCc1cc(C(C)=O)c(O)cc1OCCCC(C)(C)c1nnn[nH]1 [Example 136, 1-(5-Ethyl-2-hydroxy-4-{[4-methyl-4-(1H-tetrazol-5-yl)pentyl]oxy}phenyl)ethanone] | 100 | 77 | 41 | – | – | – | – | – | – | – |
| CCc1cc(C(C)=O)c(O)cc1OCCCCCCc1nnn[nH]1 [Example 140, 1-(5-Ethyl-2-hydroxy-4-{[6-(1H-tetrazol-5-yl)-hexyl]oxy}phenyl)ethanone] | 94 | 59 | 31 | – | – | – | – | – | – | – |
